Source: ChEMBL document CHEMBL1144513, “Synthesis and SAR study of novel 7-(pyridinium-3-yl)-carbonyl imidazo[5,1-b]thiazol-2-yl carbapenems” (2007)
Converted amounts (≈) assume the structure as drawn.

Legend:
Format in all cases: functional
Staphylococcus aureus [1] = assay: Antibacterial activity against methicillin-resistant Staphylococcus aureus M126 by agar dilution method
Staphylococcus aureus [2] = assay: Antibacterial activity against Staphylococcus aureus 209P JC1 by agar dilution method
Klebsiella pneumoniae = assay: Antibacterial activity against Klebsiella pneumoniae GN69 by agar dilution method
Staphylococcus aureus [3] = assay: Antibacterial activity against carbapenem and methicillin-resistant Staphylococcus aureus M126HR by agar dilution method
Escherichia coli = assay: Antibacterial activity against Escherichia coli NIHJ JC2 by agar dilution method
Haemophilus influenzae = assay: Antibacterial activity against beta-lactamase-negative ampicillin-resistant Haemophilus influenzae 870 by agar dilution method
Moraxella catarrhalis = assay: Antibacterial activity against Moraxella catarrhalis W-0500 by agar dilution method
Streptococcus pneumoniae = assay: Antibacterial activity against penicillin-resistant Streptococcus pneumoniae KK133 by agar dilution method

SMILES: C[C@@H](O)[C@H]1C(=O)N2C(C(=O)O)=C(c3cn4cnc(C(=O)c5cnc6ccccc6c5)c4s3)[C@H](C)[C@H]12
- MIC (Staphylococcus aureus [1]): 0.016 µg/mL (≈ 0.0328 µM)
- MIC (Staphylococcus aureus [2]): ≤ 0.008 µg/mL
- MIC (Klebsiella pneumoniae): 8 µg/mL (≈ 16.4 µM)
- MIC (Staphylococcus aureus [3]): 2 µg/mL (≈ 4.09 µM)
- MIC (Escherichia coli): 4 µg/mL (≈ 8.19 µM)
- MIC (Haemophilus influenzae): 0.125 µg/mL (≈ 0.256 µM)
- MIC (Moraxella catarrhalis): 0.031 µg/mL (≈ 0.0635 µM)
- MIC (Streptococcus pneumoniae): 0.031 µg/mL (≈ 0.0635 µM)
